In this test the target is T1, COX-2 (Homo sapiens, UniProt P35354).
T1 construct: purchased Cayman Chemicals (Ann Arbor, Mich.)
T1 sequence (P35354 18-604): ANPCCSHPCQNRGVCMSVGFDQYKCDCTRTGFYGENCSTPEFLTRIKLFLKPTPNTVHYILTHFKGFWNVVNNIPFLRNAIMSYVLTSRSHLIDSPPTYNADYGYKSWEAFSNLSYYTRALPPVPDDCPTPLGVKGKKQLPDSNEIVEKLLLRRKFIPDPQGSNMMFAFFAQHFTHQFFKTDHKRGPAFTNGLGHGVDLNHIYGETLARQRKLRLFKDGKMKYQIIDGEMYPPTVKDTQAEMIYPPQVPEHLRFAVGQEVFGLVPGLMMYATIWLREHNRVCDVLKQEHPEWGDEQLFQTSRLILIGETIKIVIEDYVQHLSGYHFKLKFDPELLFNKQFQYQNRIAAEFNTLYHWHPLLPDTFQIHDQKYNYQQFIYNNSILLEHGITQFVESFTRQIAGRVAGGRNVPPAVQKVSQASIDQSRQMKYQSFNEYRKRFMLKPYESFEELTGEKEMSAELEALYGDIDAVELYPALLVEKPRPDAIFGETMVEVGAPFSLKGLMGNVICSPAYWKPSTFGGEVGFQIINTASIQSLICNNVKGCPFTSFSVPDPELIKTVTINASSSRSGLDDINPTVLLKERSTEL
In words: COX-2 inhibition assay (Cayman Chemicals; prostaglandin production quantified by EIA). It is filed as biochemical. To be noted: in words; known compounds of SRB Extract 1. Here is the method:
All reagents and solutions were prepared according to the protocols established by Cayman Chemicals (Ann Arbor, Mich.) for the COX-1 and COX-2 inhibition assays. Two procedures were utilized to assess the COX-1/COX-2-specific and non-specific activities.
Prostaglandin Production Inhibition: Extracts were diluted in dimethylsulfoxide (DMSO), and then diluted in reaction buffer so that the final concentration of DMSO was 1%. Reactions were either run with COX-1 or COX-2 in the presence of Heme. Wells containing potential inhibitors (SRB extracts), non-inhibitor (100% activity) or background wells (heat inactivated enzyme) along with appropriate blanks were prepared. Solutions were placed in a 37° C. incubator for 15 minutes prior to running the reaction. Arachidonic acid was added and mixed and the reaction proceeded for 2 minutes. The reaction was stopped by addition of 1 M HCl to each well, then reducing the Prostaglandin H2 product to ProstaglandinG F2, which was quantified using EIA.
Quantification of Prostaglandin with EIA: The EIA assay plate was provided in the Cayman Chemicals screening kit. Aliquots, 50 μL, of the reaction products (PGF2) from prostaglandin production were added to their respective wells. […] The color development was quantified at 409 nm in a Tecan M200 microplate reader.

On to `CCCc1ccccn1` [conyrin], for which the COX-2 inhibition entry is listed as “strong”.
The result for `CC1(C)C[C@@H](O)C[C@@]2(C)OC(=O)C=C12` [epiloliode, Epiloliolide] reads “strong”.

Source of the values: patent US20090285919A1, “Rice Bran Extracts for Inflammation and Methods of Use Thereof” (priority 2008, published 2009).
